We go through one compound from patent US20110028345A1, “METHODS TO CHARACTERIZE CELL REPROGRAMMING AND USES THEREOF” (CORNING INCORPORATED, priority 2009, published 2011).

Test [1] has as its system undifferentiated and differentiated ReN cells. Description: DMR marker panel profiling, differentiated versus undifferentiated ReN cells. Type of test: cell-based, human. Conditions: markers at 10 μM (dopamine and glucagons like peptide 128 μM); FIG. 9-11. The protocol: The confluency for all cells at the time of assays was ˜95% to 100%.
(§1) For biosensor cellular assays, compound solutions were made by diluting the stored concentrated solutions with the HBSS (1× Hanks balanced salt solution, plus 20 mM Hepes, pH 7.1), and transferred into a 384 well polypropylene compound storage plate to prepare a compound source plate. […] Afterwards, a 2 to 10 min continuous recording was carried out to establish a baseline, and to ensure that the cells reached a steady state.

The test system of test [2] is differentiated ReNcell cells (endogenous dopamine receptors). Kind of test: Epic RWG biosensor DMR assay on the neuronal cell system differentiated from ReNcell VM. In kind it is cell-based, human. The protocol: For cell assay on Epic, undifferentiated cells were typically seeded using ˜3×10^3 cells per well in 50 μl of the corresponding culture medium in the biosensor microplate freshly coated with laminin, and were cultured at 37° C. under air/5% CO2. […] The medium was replaced with fresh ReNcell NSC Maintenance Medium every 2-3 days for 10 days. The confluency for all cells at the time of assays was ˜95% to 100%.
as §1

Test [3] has as its system ReNcell progenitor cells. Conditions: 128 micromolar. The procedure:
Afterwards, a 2 to 10 min continuous recording was carried out to establish a baseline, and to ensure that the cells reached a steady state. Cellular responses were then triggered by transferring 10 μl of the compound solutions into the cell assay plate using the on-board liquid handler.
Epic® wavelength interrogation system (Corning Inc., Corning, N.Y.) was used for whole cell sensing. This system consists of a temperature-control unit, an optical detection unit, and an on-board liquid handling unit with robotics. The detection unit is centered on integrated fiber optics, and enables kinetic measures of cellular responses with a time interval of ˜15 sec. The compound solutions were introduced by using the on-board liquid handling unit (i.e., pippetting).
For biosensor cellular assays, compound solutions were made by diluting the stored concentrated solutions with the HBSS (1× Hanks balanced salt solution, plus 20 mM Hepes, pH 7.1), and transferred into a 384 well polypropylene compound storage plate to prepare a compound source plate. Two compound source plates were made separately when a two-step assay was performed. […] Both the cell assay plate and the compound source plate(s) were then incubated in the hotel of the reader system. After incubation the baseline wavelengths of all biosensors in the cell assay microplate were recorded and normalized to zero. […]

For `NCCc1ccc(O)c(O)c1` [dopamine], the “specificity of the marker DMR signal for the differentiation state” value in test [1] is “non-specific to both the undifferentiated and differentiated ReN cells”. Also, the “DMR signal 10 days after differentiation and maturation” value in test [2] (128 micromolar, 10 days after differentiation (FIG. 8D)) was “distinct DMR signal which contains additional contributions from endogenous D1 receptors”. In test [2] (amplitudes 50 min after stimulation as a function of concentration (FIG. 7D)), the “dose dependence of the DMR signal” value is listed as “biphasic dose-dependent DMR signal”. Also, the “DMR signal upon stimulation” value in test [2] (differentiated ReNcell cells, PD128907 and A68930 16 micromolar, dopamine 128 micromolar (FIG. 7A-C)) was “small but reproducible DMR signal”. For the same compound, the “DMR signal at high doses” value in test [2] (differentiated cells, high doses) was “close to the simple sum of both A68390 and PD129807 DMR signals”. Moreover, the “DMR signal at low doses” value in test [2] (differentiated cells, low doses (<4000 nM)) is recorded as “DMR signal similar to that induced by A68390”. Moreover, the “receptor to which the DMR signal is attributed” value in test [2] (differentiated cells, same doses as FIG. 7A-C) is “can activate both D1 and D2 receptors”. The “DMR signal 3 hr after attachment” value in test [3] (3 hr after attachment on laminin coated biosensor surface (FIG. 8B)) is recorded as “small but reproduced DMR signal”. Also, the “DMR signal after 4 days undifferentiated culture” value in test [3] (4 days in growth factor rich medium (FIG. 8C)) is “distinct DMR signal (FIG. 8C), which was confirmed to be due to the activation of the endogenous D2 receptor”.
